Consider 8 compounds from ChEMBL document CHEMBL3286140, “Synthesis and biological evaluation of salpichrolide analogs as antiestrogenic agents” (Eur J Med Chem, 2014).

Molecules are shown by their SMILES. Calls of active or inactive are those of the source. No cut-off for these calls is given here.

As a reminder, the IC50 is the concentration that inhibits the measured activity by half.

The test system of series [1] is MCF7. As to the kind of experiment: Inhibition of 17beta-estradiol-induced in ERalpha positive human MCF7 cells proliferation assessed as [3H]-thymidine incorporation after 72 hrs by liquid scintillation counting. The series is classed as functional, cell-based. (Incorporation of labelled thymidine or its analogues reports DNA synthesis.)
Series [2] relates to MCF7. As to the kind of experiment: Inhibition of 17beta-estradiol-induced in ERalpha positive human MCF7 cells proliferation assessed as [3H]-thymidine incorporation at 1 uM after 72 hrs by liquid scintillation counting. The series is classed as functional, cell-based.
Series [3] concerns MCF7. As to the kind of experiment: Inhibition of 17beta-estradiol-induced in ERalpha positive human MCF7 cells proliferation assessed as [3H]-thymidine incorporation at 100 nM after 72 hrs by liquid scintillation counting. Format: functional, cell-based.
Series [4] has as its system MDA-MB-231. In words: Inhibition of 17beta-estradiol-induced in ERalpha negative human MDA-MB-231 cells proliferation assessed as [3H]-thymidine incorporation after 72 hrs by liquid scintillation counting. Format: functional, cell-based.
The test system of series [5] is MDA-MB-231. As to the kind of experiment: Cytotoxicity against ERalpha negative human MDA-MB-231 cells at 10 nM and 1 uM. The series is classed as cell-based. Conditions: mda-mb-231, 0.01 µM.
The subject of series [6] is MCF7. In words: Cytotoxicity against ERalpha positive human MCF7 cells at 10 nM and 1 uM. Format: cell-based. Conditions: mcf7, 0.01 µM.
Series [7] has as its system MCF7. In words: Inhibition of 17beta-estradiol-induced in ERalpha positive human MCF7 cells proliferation assessed as [3H]-thymidine incorporation at 10 nM after 72 hrs by liquid scintillation counting. The series is classed as functional, cell-based.

Consider `C[C@@H](c1ccc2c(c1)CC[C@H]1[C@H]2C[C@@H]2O[C@@]23CC=C[C@H](O)[C@]13C)[C@H]1C[C@]2(C)O[C@]2(C)[C@H](O)O1`, for which the IC50 in the series on MCF7 [1] was determined as 18 nM.
As for `CC(=O)c1ccc2c(c1)CC[C@H]1[C@H]2C[C@H]2O[C@]23C[C@@H](O)CC[C@]13C`, the inhibition entry in the series on MCF7 [2] was “inactive”.
Consider `CC(=O)c1ccc2c(c1)CC[C@H]1[C@H]2CC[C@H]2CC=CC(=O)[C@@]21C`, for which the IC50 with MCF7 [1] is 50 nM. In the series on MCF7 [3], the inhibition entry was “Active”. The inhibition result in the series with MDA-MB-231 [4] is “inactive”.
Take `CC(=O)c1ccc2c(c1)CC[C@H]1[C@H]2CC[C@H]2CC=C[C@H](O)[C@@]21C`: in the series on MCF7 [2], the inhibition entry is “inactive”.
On to `CC(=O)c1ccc2c(c1)CC[C@H]1[C@H]2CC[C@H]2C[C@@H](O)CC[C@@]21C`, for which the IC50 with MCF7 [1] turned out to be 330 nM. The inhibition result in the series with MCF7 [3] is “Active”. In addition, the inhibition entry with MDA-MB-231 [4] is “inactive”.
As for `C[C@@H](c1cc(O)c2c(c1)CC[C@H]1[C@H]2C[C@@H]2O[C@@]23CC=CC(=O)[C@]13C)[C@@H]1C[C@@H]2O[C@@H]2[C@H](O)O1` [SALPICHROLIDE G], the half-maximal inhibitory concentration (IC50) in the series on MCF7 [1] was 140 nM. Also, the Activity entry with MDA-MB-231 [5] and in the series on MCF7 [6] was “Toxic” each time.
For the compound `C[C@]12CC[C@@H]3c4ccc(O)cc4C[C@@H](CCCCCCCCC[S+]([O-])CCCC(F)(F)C(F)(F)F)[C@H]3[C@@H]1CC[C@@H]2O` (stereo not given in full) [FULVESTRANT], the IC50 in the series with MCF7 [1] amounted to 1.9 nM. In addition, the inhibition result in the series with MCF7 [7] was “Active”.
Turning to `CC(=O)c1ccc2c(c1)CC[C@H]1[C@H]2C[C@@H]2O[C@@]23C[C@@H](O)CC[C@]13C`, the inhibition result in the series with MCF7 [1] is “inactive”.
